Experimental data as given in patent US20240335427A1, “SMALL MOLECULE INHIBITION OF DEUBIQUITINATING ENZYME JOSEPHIN DOMAIN CONTAINING 1 (JOSD1) AS A TARGETED THERAPY FOR LEUKEMIAS WITH MUTANT JANUS KINASE 2 (JAK2)” (DANA-FARBER CANCER INSTITUTE, INC., priority 2021, published 2024).

Legend:
normal bone marrow cells = experiment: Normal bone marrow colony assay; format: cell-based, human
Protocol: Normal human bone marrow was also analyzed in a colony assay: 24-well plates seeded with 200 cells/well in MethoCult™ H4434 Classic (methylcellulose-based medium with recombinant cytokines for human cells) ([…] Technologies™ INC., Vancouver, British Columbia, Canada). The plates contained targeted JOSD1 inhibitors at the indicated concentrations. Plates were incubated at 37° C. in 5% CO2 for >1 week, and then myeloid and erythroid colonies (early progenitors with erythroid and myeloid components: colony-forming unit for granulocytes and macrophages (CFU-GM), CFU-erythroid (E), BFU-E, and CFU-granulocyte, erythroid, macrophage, megakaryocyte (GEMM) were counted on an inverted microscope.

HEL cells = experiment: HEL cell growth inhibition by fresh or aged drug stocks (stability); format: cell-based, human; settings: stocks stored two to three years at −20° Celsius; 2.5, 5, 10, 20 μM, 24 hours
Protocol: Fresh or aged stocks of compounds 1 and 2 were tested for the ability to inhibit HEL cell growth at 2.5, 5, 10, and 20 μM of each drug after 24 hours (FIG. 19A-FIG. 19B).
The CellTiter Glo® assay was performed using HEL cells seeded at 1000 cells/well of a 96-well plate. The “fresh” drug stocks were obtained frozen (stored at −20° Celsius) within days of executing the proliferation experiment for which results are shown. The “aged” drug stocks were obtained from freeze-thawed stocks serially diluted and stored at −20° Celsius in the laboratory. The “aged” stocks were stored between at least two years to three years at −20° Celsius with little to no freeze-thaw cycles prior to execution of the proliferation experiment for which results are shown. “Aged” stocks may be stored for several years (e.g., at least one year, at least two years, at least three years, at least four years or more) at −20° Celsius prior to use.

UCHL1 = UCHL1 (Homo sapiens (Human), UniProt P09936); experiment: UCHL1 biochemical inhibition (ubiquitin hydrolase activity, purified enzyme)
Chain of UCHL1 (P09936 whole entry, species assumed): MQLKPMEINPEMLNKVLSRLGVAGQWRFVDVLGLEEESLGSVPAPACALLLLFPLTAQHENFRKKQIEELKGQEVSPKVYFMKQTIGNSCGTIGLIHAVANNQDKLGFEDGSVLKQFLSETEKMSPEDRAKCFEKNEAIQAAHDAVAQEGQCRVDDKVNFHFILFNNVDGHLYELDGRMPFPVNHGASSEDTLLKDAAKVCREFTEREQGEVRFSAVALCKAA

JAK2-V617F = JAK2-V617F (Homo sapiens (Human), UniProt O60674, V617F); experiment: JAK2-V617F protein loss in human AML cell lines by western blotting; format: cell-based; settings: HEL cells, co-treatment with cycloheximide
Protocol: Immunoblotting and Immunoprecipitation. Protein lysate preparation, immunoblotting, and immunoprecipitation were carried out as previously described (Lamberto, et al., 2017 Cell Chem Biol., 224(12):1490-500 e11). Briefly, 0.7×10^6 cells were treated with compounds 1 and 2 at 0, 5, 10, and 20 μM for 16 or 24 hours, cells were collected, and lysate was prepared in radioimmunoprecipitation assay (RIPA) buffer, JAK family and downstream signaling protein levels were detected by western blotting with the indicated antibodies. For immunoprecipitation, 1 mg protein for each sample was prepared and 1 μg antibody was used, immunoglobulin G (IgG) was added in same amount as nontargeting control.

Question: Which results are given for `Cc1noc(C)c1-c1cccc2nc(NC(=O)[C@H]3CCN(C#N)C3)sc12` [Compound 2, (S)-1-cyano-N-(7-(3,5-dimethylisoxazol-4-yl)benzo[d]thiazol-2-yl)pyrrolidine-3-carboxamide]?
Answer: normal bone marrow colony formation (normal bone marrow cells; 5 μM or higher): significantly impaired; normal bone marrow colony formation (normal bone marrow cells; concentrations up to 2.5 μM): colonies were able to form; stability: growth inhibition by aged stocks versus fresh stocks (HEL cells): comparable cell growth inhibition; UCHL1 biochemical IC50 (range in words) (UCHL1): several hundred; JAK2-V617F protein half-life (JAK2-V617F): shorten JAK2-V617F protein half-life
